Data from patent US20250368633A1, “AZEPINE FUSED RING COMPOUND AS RIPK1 INHIBITOR AND USE THEREOF” (ARTIVILA BIOPHARMA, priority 2022, published 2025).

Assays:
U937 cells = experiment: Inhibition rate of compound (1 μM) on necroptosis of U937 cells (TSZ-induced, CellTiter-Glo); format: cell-based; settings: TSZ (hTNF-α, SM-164, Z-VAD-FMK) 20 hours
Summary of the method: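 Percent inhibition comes from ATP luminescence (CellTiter-Glo), referenced to wells without TSZ and wells with TSZ alone. The compound was added to U937 cells 15 min ahead of a TNF-α/SM-164/Z-VAD-FMK mix, followed by 20 h culture at 37° C, 5% CO2.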

RIPK1 kinase [1] = molecular target: T1, RIPK1 kinase (Homo sapiens, UniProt Q13546); experiment: In vitro RIPK1 kinase activity IC50 assay (ADP-Glo); format: biochemical; settings: ATP 10 μM; MBP substrate 100 μg/mL; 8 concentration points; read-out: IC50 range of compounds for RIPK1 kinase activity
T1 construct: purchased Promega VA7593
T1 sequence (Q13546 1-671): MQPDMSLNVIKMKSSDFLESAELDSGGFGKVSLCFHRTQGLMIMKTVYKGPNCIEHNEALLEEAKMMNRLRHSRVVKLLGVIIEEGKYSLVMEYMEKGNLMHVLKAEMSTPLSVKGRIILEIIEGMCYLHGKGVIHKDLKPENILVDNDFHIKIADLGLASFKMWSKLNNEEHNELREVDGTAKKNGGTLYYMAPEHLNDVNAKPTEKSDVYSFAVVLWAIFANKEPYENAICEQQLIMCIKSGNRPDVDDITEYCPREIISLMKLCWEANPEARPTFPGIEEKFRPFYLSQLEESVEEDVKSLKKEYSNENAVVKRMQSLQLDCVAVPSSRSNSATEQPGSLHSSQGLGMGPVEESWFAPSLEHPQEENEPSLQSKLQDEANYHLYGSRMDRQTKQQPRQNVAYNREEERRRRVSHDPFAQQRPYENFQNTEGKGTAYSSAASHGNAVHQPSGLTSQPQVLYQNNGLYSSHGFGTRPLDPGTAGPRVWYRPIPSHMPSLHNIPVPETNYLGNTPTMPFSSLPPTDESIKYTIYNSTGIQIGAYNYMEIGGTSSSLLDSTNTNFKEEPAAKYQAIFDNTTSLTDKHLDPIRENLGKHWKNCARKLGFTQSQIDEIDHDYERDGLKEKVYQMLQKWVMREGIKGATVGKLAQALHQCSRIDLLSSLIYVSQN
Summary of the method: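 Human RIPK1 preincubated 15 min at room temperature with compound (8-point 1:5 dilution series, 1% DMSO in kinase buffer D). Reaction then ran 1 h with 10 μM ATP and 100 μg/mL MBP substrate; ADP measured by ADP-Glo luminescence, IC50 from four-parameter nonlinear fit.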

RIPK1 kinase [2] = molecular target: T1, RIPK1 kinase; experiment: In vitro RIPK1 kinase activity assay (ADP-Glo), inhibition by compounds at 1 μM; format: biochemical; settings: compound 1 μM; ATP 10 μM; MBP substrate 100 μg/mL; read-out: RIPK1 kinase activity inhibition rate range
Summary of the method: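 Read by ADP-Glo chemiluminescence as percent inhibition: RIPK1 kinase, 15-min room-temperature compound preincubation, then 1-h reaction with MBP (100 μg/mL final) and ATP (10 μM final). Enzyme level was set by titration.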

Row | SMILES | Inhibition rate range of compounds (1 μM) on U937 cell necroptosis (U937 cells) | IC50 (RIPK1 kinase [1]) | inhibition at 1 µM (RIPK1 kinase [2])
1 | CN1C(=O)[C@@H](NC(=O)C(=O)NCCc2ccccc2)COc2ccc(C#CCN3CCC(O)CC3)cc21 [Example 81, (S)—N^1-(7-(3-(4-hydroxypiperidin-1-yl)prop-1-yn-1-yl)-5-methyl-4-oxo-2,3,4,5-tetrahydrobenzo[b][1,4]oxazepin-3-yl)-N^2-phenethyloxalamide] | A (A: ≥90%) | < 0.1 µM | ≥ 75%
2 | CN1C(=O)[C@@H](NC(=O)C(=O)NCCc2ccccc2)COc2ccc(C#CCN3C(=O)CCC3=O)cc21 [Example 84, (S)—N^1-(7-(3-(2,5-dioxopyrrolidin-1-yl)prop-1-yn-1-yl)-5-methyl-4-oxo-2,3,4,5-tetrahydrobenzo[b][1,4]oxazepin-3-yl)-N^2-phenethyloxalamide] | A (A: ≥90%) | < 0.1 µM | ≥ 75%
3 | CN1C(=O)[C@@H](NC(=O)C(=O)NCCc2ccccc2)COc2ccc(C#CCN3CCNC(=O)C3)cc21 [Example 85, (S)—N^1-(5-methyl-4-oxo-7-(3-(3-oxopiperazin-1-yl)prop-1-yn-1-yl)-2,3,4,5-tetrahydrobenzo[b][1, 4]oxazepin-3-yl)-N^2-phenethyloxalamide] | B (B: 50-89%) | < 0.1 µM | ≥ 75%
4 | CN1C(=O)[C@@H](NC(=O)C(=O)NCCc2ccccc2)COc2ccc(C#CCNC(=O)OC(C)(C)C)cc21 [Example 86, tert-butyl (S)-(3-(5-methyl-4-oxo-3-(2-oxo-2-(phenethylamino)acetamido)-2,3,4,5-tetrahydrobenzo[b][1,4]oxazepin-7-yl)prop-2-yn-1-yl)carbamate] | A (A: ≥90%) | < 0.1 µM | 50 to 74%
5 | CN1C(=O)[C@@H](NC(=O)C(=O)NCCc2ccccc2)COc2ccc(C#CCNC(=O)CO)cc21 [Example 88, (S)—N^1-(7-(3-(2-hydroxyacetamido)prop-1-yn-1-yl)-5-methyl-4-oxo-2,3,4,5-tetrahydrobenzo[b][1, 4]oxazepin-3-yl)-N^2-phenethyloxalamide] | A (A: ≥90%) | < 0.1 µM | ≥ 75%
6 | C=CC(=O)NCC#Cc1ccc2c(c1)N(C)C(=O)[C@@H](NC(=O)C(=O)NCCc1ccccc1)CO2 [Example 89, (S)—N^1-(7-(3-acrylamidoprop-1-yn-1-yl)-5-methyl-4-oxo-2,3,4,5-tetrahydrobenzo[b][1,4]oxazepin-3-yl)-N^2-phenethyloxalamide] | A (A: ≥90%) | < 0.1 µM | 50 to 74%
7 | CN1C(=O)[C@@H](NC(=O)C(=O)NCCc2ccccc2)COc2ccc(C#CC3CN(C=O)C3)cc21 [Example 91, (S)—N^1-(7-((1-formylazetidin-3-yl)ethynyl)-5-methyl-4-oxo-2,3,4,5-tetrahydrobenzo[b][1,4]oxazepin-3-yl)-N^2-phenethyloxalamide] | A (A: ≥90%) | < 0.1 µM | ≥ 75%
8 | CN1C(=O)[C@@H](NC(=O)C(=O)NCCc2ccccc2)COc2ccc(C#CC3(O)CN(C=O)C3)cc21 [Example 92, (S)—N^1-(7-((1-formyl-3-hydroxyazetidin-3-yl)ethynyl)-5-methyl-4-oxo-2,3,4,5-tetrahydrobenzo[b][1,4]oxazepin-3-yl)-N^2-phenethyloxalamide] | A (A: ≥90%) | < 0.1 µM | 50 to 74%
9 | CCOC(=O)CCC#Cc1ccc2c(c1)N(C)C(=O)[C@@H](NC(=O)C(=O)NCCc1ccccc1)CO2 [Example 94, ethyl (S)-5-(5-methyl-4-oxo-3-(2-oxo-2-(phenethylamino)acetamido)-2,3,4,5-tetrahydrobenzo[b][1,4]oxazepin-7-yl) pent-4-ynoate] | B (B: 50-89%) | < 0.1 µM | ≥ 75%
10 | CN1C(=O)[C@@H](NC(=O)C(=O)NCc2ccccc2)COc2ccc(C#CCn3ccnc3)cc21 [Example 104, (S)—N^1-(7-(3-(1H-imidazol-1-yl)prop-1-yn-1-yl)-5-methyl-4-oxo-2,3,4,5-tetrahydrobenzo[b][1,4]oxazepin-3-yl)-N^2-benzyloxalamide] | A (A: ≥90%) | < 0.1 µM | ≥ 75%
11 | CN1C(=O)[C@@H](NC(=O)C(=O)NCc2ccccc2)COc2ccc(C#CCN3CCOCC3)cc21 [Example 106, (S)—N^1-benzyl-N^2-(5-methyl-7-(3-morpholinoprop-1-yn-1-yl)-4-oxo-2,3,4,5-tetrahydrobenzo[b][1, 4]oxazepin-3-yl)oxalamide] | B (B: 50-89%) | < 0.1 µM | ≥ 75%
12 | CN1C(=O)[C@@H](NC(=O)C(=O)NCc2ccccc2)COc2ccc(C#CCN3CCNC(=O)C3)cc21 [Example 107, (S)—N^1-benzyl-N^2-(5-methyl-4-oxo-7-(3-(3-oxopiperazin-1-yl)prop-1-yn-1-yl)-2,3,4,5-tetrahydrobenzo[b][1,4]oxazepin-3-yl)oxalamide] | A (A: ≥90%) | < 0.1 µM | 50 to 74%
13 | CN1C(=O)[C@H](NC(=O)C(=O)NCCc2cccc(F)c2)COc2ccc(C#CCCO)cc21 [Example 109, (R)—N^1-(3-fluorophenethyl)-N^2-(7-(4-hydroxybut-1-yn-1-yl)-5-methyl-4-oxo-2,3,4,5-tetrahydrobenzo[b][1,4]oxazepin-3-yl)oxalamide] | A (A: ≥90%) | < 0.1 µM | ≥ 75%
14 | CN1C(=O)[C@@H](NC(=O)C(=O)NCCc2cccc(F)c2)COc2ccc(C#CC3(O)COC3)cc21 [Example 110, (S)—N^1-(3-fluorophenethyl)-N^2-(7-((3-hydroxyoxetan-3-yl)ethynyl)-5-methyl-4-oxo-2,3,4,5-tetrahydrobenzo[b][1,4]oxazepin-3-yl)oxalamide] | A (A: ≥90%) | < 0.1 µM | ≥ 75%
15 | CN1C(=O)[C@@H](NC(=O)C(=O)NCCc2cccc(F)c2)COc2ccc(C#CCN3CC[C@@H](O)C3)cc21 [Example 114, N^1-(3-fluorophenethyl)-N^2-((S)-7-(3-((R)-3-hydroxypyrrolidin-1-yl)prop-1-yn-1-yl)-5-methyl-4-oxo-2,3,4,5-tetrahydrobenzo[b][1,4]oxazepin-3-yl)oxalamide] | A (A: ≥90%) | < 0.1 µM | ≥ 75%
16 | CN1C(=O)[C@@H](NC(=O)C(=O)NCCc2cccc(F)c2)COc2ccc(C#CCN3CC[C@H](O)C3)cc21 [Example 115, N^1-(3-fluorophenethyl)-N^2-((S)-7-(3-((S)-3-hydroxypyrrolidin-1-yl)prop-1-yn-1-yl)-5-methyl-4-oxo-2,3,4,5-tetrahydrobenzo[b][1,4]oxazepin-3-yl)oxalamide] | A (A: ≥90%) | < 0.1 µM | 50 to 74%
17 | CN1C(=O)[C@@H](NC(=O)C(=O)NCCc2cccc(F)c2)COc2ccc(C#Cc3cccnc3)cc21 [Example 117, (S)—N^1-(3-fluorophenethyl)-N^2-(5-methyl-4-oxo-7-(pyridin-3-ylethynyl)-2,3,4,5-tetrahydrobenzo[b][1,4]oxazepin-3-yl)oxalamide] | A (A: ≥90%) | < 0.1 µM | 50 to 74%
18 | CN1C(=O)[C@@H](NC(=O)C(=O)NCCc2cccc(F)c2)COc2ccc(C#CCN3CCC(=O)CC3)cc21 [Example 118, (S)—N^1-(3-fluorophenethyl)-N^2-(5-methyl-4-oxo-7-(3-(4-oxopiperidin-1-yl)prop-1-yn-1-yl)-2,3,4,5-tetrahydrobenzo[b][1,4]oxazepin-3-yl)oxalamide] | A (A: ≥90%) | < 0.1 µM | ≥ 75%
